Results taken from US7514257B2, “Zinc finger transcription factor differentiation proteins” (ToolGen, Inc., priority 2001, dated 2009).
Values joined by “and” are separate entries in the source; they are usually repeats but may differ in a detail not shown here. Identical values can stand only once.

What was measured:
[1] = test system: yeast strain YPH499a; assay: Ketoconazole resistance of yeast transformants; format: cell-based, Saccharomyces cerevisiae; conditions: 10^7 cells plated on synthetic media
Protocol: To check the fungistatic response of the tester strain YPH499a to ketoconazole, 10^7 cells of the YPH499a strain were plated onto synthetic media containing different concentrations of the drug.
1×10^7 yeast cells containing plasmids from the 3-finger and 4-finger libraries were cultivated in synthetic liquid medium with 2% galactose for 3 hours at 30° C. to induce zinc finger protein expression and then were plated onto synthetic galactose agar plates containing 35 μM ketoconazole (ICN Biomedicals). After fours days of incubation at 30° C., about 120 clones formed colonies on galactose media containing 35 μM ketoconazole. These ketoconazole resistant yeast colonies were picked and streaked on fresh synthetic galactose agar plates containing 35 μM ketoconazole. 23 clones were randomly selected from the 120 resistant clones. For each of these 23 clones, the resistant phenotype was verified by plasmid rescue. […]
In one experiment, 5×10^4 cells from each transformant were serially diluted (10^−1, 10^−2, and 10^−3 fold) and spotted on galactose or glucose media supplemented without or with 35 μM ketoconazole. Growth of the cells was monitored after four days at 30° C. and compared to controls on the same plate. […]

[2] = test system: CMV-SEAP reporter; assay: CMV-SEAP reporter in 293F cells; format: cell-based, human; conditions: for CMV-SEAP, average: Vector (HANLS) = 1
Protocol: (§1) Three days after transfection, medium was transferred to the new tubes and heated for 30 minutes at 65° C. to inactivate the endogenous alkaline phosphatase. 25 μl of medium was mixed with the same volume of 2×SEAP assay buffer (2 M Diethanolamine (pH 9.8) 10 ml, 1 M MgCl2 10 μl, 1 M homoarginine 200 μl, pNitro phenyl phosphate 44.52 mg). Absorbance at 405 nm was measured after the indicated incubation times at 37° C.
(§2) To investigate this point, an extensive screening had been carried out using the SEAP reporter under the control of CMV promoter (CMV-SEAP) in 293F cells. Two ZFPs, K44—11_D01 and K44—11_G12, that increase activity of the SEAP protein were isolated. These two ZFPs were further tested using two other reporter plasmids, SV40-SEAP and the luciferase reporter under the control of CMV promoter (CMV-Luc). […] Thus, K44—11_G12 may be used increase the production of proteins generally in cells, e.g., eukaryotic cells.

[3] = test system: SV40-SEAP reporter; assay: SV40-SEAP reporter in 293F cells; format: cell-based, human; conditions: for SV40-SEAP, average: Vector (HANLS) = 1
Protocol: as §1
as §2, with “(CMV-Luc). […].” for “(CMV-Luc).”

[4] = test system: CMV-Luc reporter; assay: CMV-Luc reporter in 293F cells; format: cell-based, human; conditions: for CMV-Luc, average: Vector (HANLS) = 1
Protocol: For the luciferase assay, 5 ng of both CMV-luciferase and pRL-SV40 plasmid were co-transfected with 50 ng of ZFP coding plasmids to 293 cells seeded in wells of a 96 well plate. After 3 days of incubation, cells were harvested and the luciferase assay was done by a Dual Luciferase reporter assay system (Promega) as recommended by the manufacturer.
as §2

[5] = test system: transcripts of human embryonic kidney 293 cells; assay: Transcript profiling of 293 cells expressing F121_p65; format: cell-based
Protocol: DNA microarrays containing 7458 human EST clones were obtained from Genomictree (Korea). FlpTRex-293 cells stably expressing ZFP-TFs were grown with (+Dox) or without Dox) 1 μg/ml Doxycycline for 48 hours. Total RNA was prepared from each sample. RNA from the −Dox sample was used as a reference (Cy3), and +Dox as the experimental sample (Cy5). Microarray analysis was performed according to the manufacturer's protocols. Spots with sum of median less than 500 were colored red and not analyzed.
The zinc finger protein F121_p65 was expressed in human embryonic kidney 293 cells. […] F121_p65 increases transcription of insulin-like growth factor 2, among other genes.

[6] = test system: 293 cells; assay: Cell growth of transfected 293 cells (cell count confirming MTT assay); format: cell-based, human; conditions: for relative cell number, average: three days after transfection, relative to parental vector
Protocol: MTT assay is used to measure cell growth. Tetrazolium MTT reduced by metabolically active cells […] color indicates the number of viable cells. MTT assay was done using a MTT assay kit (Trevigen). The MTT assay was done at three days after transfection. Briefly, 10 μl of MTT solution was added directly to the culture medium and incubated for two hours in a CO2 incubator. Then, 100 μl of detergent solution from the MTT assay kit was added and incubated in the dark for two hours before measurement of absorbance at 570 nm was measured using a Power-Wave 340× (Bio-Tek Instrument).
To count cell numbers, 293 cells were seeded at 1.5·10^4 cells/well in a 24 well plate one day before transfection. Three days after transfection with 200 ng of ZFP-coding nucleic acid or control vector plasmids, cells were washed with PBS once and suspended in 30 ul of TE (10 mM Tris 1 mM EDTA, pH 8.0) buffer and counted by hematocytometery.
To confirm the MTT assay, the cell numbers were counted after transfection of K_D10 and K_F02 in 293 cells. The result was compared to the cell number of the well transfected with the parental vector, converted to relative percentages and shown in Table 13. […] The P values for K_D10 and K_F02 are 0.001 and 0.01, respectively. For sequence information, see FIGS. 18 and 19.

[7] = test system: SV40-SEAP reporter (pSEAP2-control); assay: SEAP assay, SV40-SEAP reporter in 293 cells; format: cell-based, human
Protocol: Human embryonic kidney 293 cells were cultured with 100 μl of DMEM with 10% of FBS in a humidified atmosphere containing 95% air and 5% CO2 and seeded in wells of a 96 well plates 1 day ahead of transfection. The plasmids were isolated from individual colonies of each library separately and transfected into 293 cells LIPOFECTAMINE PLUS™ (Invitrogen) as recommended by the manufacturer. For MTT assay, 50 ng of plasmids containing zinc finger protein gene fused to the functional domains were transfected into cells cultured at 5·10^3 cells/well. For the SEAP assay, 10 ng of pSEAP2-control (Clontech) plasmid was co-transfected with 50 ng of plasmids containing zinc finger protein gene fused to the functional domains into cells cultured at 1·10^4 cells/well. The transfected cells were incubated at 37° C. for three days before assays.
as §1
We tested whether library nucleic acids could alter expression of a heterologous nucleic acid. SEAP (secretory alkaline phosphatase) was used as a reporter protein to test whether a ZFP can affect amount of foreign protein produced intracellularly.

[8] = test system: mouse neuroblastoma Neuro2a cells; assay: Neurite formation in Neuro2A cells; format: cell-based
Protocol: Mouse neuroblastoma Neuro2a cells were maintained in MEM-a media with 10% FBS and antibiotics at 37° C., in a humidified atmosphere containing 95% air and 5% CO2. Cells were seeded at 8.0·10^3 cells per 96-well culture plate and then were transfected using LIPOFECTAMINE PLUS™ reagent (Invitrogen,CA) according to the manufacturer's protocol, with 50 ng of ZFP, together with 20 ng of LacZ reporter plasmid. In vitro differentiation was carried out with or without retinoic acid (RA) (10 μM) respectively, and G418 (1 mg/ml) was treated 24 hours after transfection to reduce the number of untransfected cells. Cells were then cultured for 96 hours and then fixed, stained for β-galactosidase activity, and photographed. Among β-galactosidase-positive cells, cells were regarded as differentiated if the length of neurite extension was at least two times the diameter of the cell body.
To screen for ZFP-TFs that can induce neuronal differentiation, Neuro2A cells were transiently transfected with library plasmids and a reporter plasmid that includes the LacZ gene. LacZ expression was used to visualize the morphology of transfected cells. Because the differentiating cells grow slower than non-differentiating cells and the latter will dominate the cell population, we treated the cell culture with G418 24 hr after transfection to reduce the number of untransfected cells. After five days, cells were fixed and LacZ-stained. We then characterized the cells by their morphological characteristics. In particular, we identified cells with increased neurite length and thickness.

[9] = test system: C2C12 myoblasts; assay: ALP staining for transdifferentiation of C2C12 myoblasts to osteoblasts; format: cell-based, mouse; conditions: absence of BMP-2, seven days after transfection
Description: We screened for chimeric zinc finger proteins that induce transdifferentiation of C2C12 myoblasts to osteoblasts in the absence of BMP-2. We transiently transfected a nucleic acid library encoding chimeric zinc finger proteins into C2C12 cells and screened for cells that undergo transdifferentiation in the absence of BMP-2. Seven days after transfection, the transformed cells were stained for alkaline phosphatase (ALP), a marker for osteoblasts (Katagiri, T. et al., (1994) J. Cell. Biol. 127:1755).
For these experiments, the mouse myoblast cell line, C2C12, was maintained in Dulbecco's Modified Eagle's Medium (DMEM) with 4.5 g/L glucose, 10% FBS, and antibiotics, at 37° C., in a humidified atmosphere containing 95% air and 5% CO2. Cells were seeded at 1.0·10^4 cells per 96-well culture plates. […] Twenty-four hours after transfection, the growth medium was replaced with DMEM containing 2% FBS, and the cells were cultured for an additional six days.
To examine the differentiation of C2C12 cells to osteoblasts, ALP staining was performed as described in Katagiri, T. et al., (1994) J. Cell.

CC(=O)N1CCN(c2ccc(OCC3COC(Cn4ccnc4)(c4ccc(Cl)cc4Cl)O3)cc2)CC1 (stereo not shown) [ketoconazole, Ketoconazole]
ketoconazole concentration that inhibited growth of YPH499a cells [1]: 35 µM

K44_11_D01: ZFP QSHV-QSNI-QTHR1-CSNR1 with kid repression domain (SEQ ID NO:14)
increase of SEAP activity compared to parental plasmid (vector) [2]: approximately 3 fold
CMV-SEAP, average [2]: 3.49
activation of SV40-SEAP (in words) [3]: showed activation of SV40-SEAP
SV40-SEAP, average [3]: 3.66
activation of CMV-Luciferase (in words) [4]: not the CMV-Luciferase
CMV-Luc, average [4]: 0.87

F121_p65: ZFP QSHT-RSHR-RDHT-p65 (SEQ ID NO:20)
Norm ratio of medians (ROM) ([5]; FK506-binding protein 8 (38 kD), ID N95418): 8.66
Norm ratio of medians (ROM) ([5]; Fn14 for type I transmenmbrane protein, ID AI221536): 5.06
Norm ratio of medians (ROM) ([5]; brain-specific protein p25 alpha, ID AA133959): 5.71
Norm ratio of medians (ROM) ([5]; cadherin 13, H-cadherin (heart), ID R41787): 7.34 and 5.90
Norm ratio of medians (ROM) ([5]; cellular retinoic acid-binding protein 2, ID AA598508): 10.30
Norm ratio of medians (ROM) ([5]; cyclin D1 (PRAD1: parathyroid adenomatosis, ID AA487486)): 5.27
Norm ratio of medians (ROM) ([5]; cysteine-rich protein 2, ID AA485427): 6.71
Norm ratio of medians (ROM) ([5]; growth arrest and DNA-damage-inducible, ID AA404666): 5.55
Norm ratio of medians (ROM) ([5]; insulin-like growth factor 2, ID H59614): 17.71 and 16.88
Norm ratio of medians (ROM) ([5]; insulin-like growth factor 2, ID N54596): 14.40
Norm ratio of medians (ROM) ([5]; jun B proto-oncogene, ID N94468): 11.61
Norm ratio of medians (ROM) ([5]; ketohexokinase (fructokinase), ID T61256): 5.28
Norm ratio of medians (ROM) ([5]; lymphocyte antigen 6 complex, locus H, ID AI929550): 5.50
Norm ratio of medians (ROM) ([5]; nuclear factor of activated T-cells, ID AA679278): 9.64
Norm ratio of medians (ROM) ([5]; protein phosphatase 2, regulatory subunit, ID R59165): 9.89 and 8.60
Norm ratio of medians (ROM) ([5]; protein tyrosine phosphatase, receptor, ID R45941): 16.45
Norm ratio of medians (ROM) ([5]; putative gene product, ID H09111): 12.35
Norm ratio of medians (ROM) ([5]; tumor necrosis factor (ligand) superfamily, ID AI347622): 6.15
Norm ratio of medians (ROM) ([5]; unnamed (—), ID AA045731): 5.27
Norm ratio of medians (ROM) ([5]; zinc finger protein homologous to Zfp-36, ID R38383): 6.46

K_D10: ZFP QSHV-WSNR-WSNR-RDNQ with kid repression domain (SEQ ID NO:10)
inhibition of cell growth compared to parental vector [6]: approximately 3 fold
relative cell number, average [6]: 27.4%

P_B08: ZFP QSNR1-DSNR-DSNR with p65 activation domain (SEQ ID NO:8)
Absorbance (405 nm) ([7]; SEAP reporter activity, three days after transfection): 2.40
SV40-SEAP reporter, average ([7]; Vector (HANLS) = 1): 16.51
increase of SEAP activity compared to parental plasmid ([7]; retest): approximately 16 fold

CC1=C(/C=C/C(C)=C/C=C/C(C)=C/C(=O)O)C(C)(C)CCC1 [RA, retinoic acid, reference compound]
Percentage of neurite bearing cells ([8]; RA 10 uM): 14.93 ± 7.69%

Neuro1-p65: chimeric ZFP QSNR1-QSNK-CSNR1 with p65 activation domain (SEQ ID NO:2)
Percentage of neurite bearing cells ([8]; No RA): 42.39 ± 5.56%
Percentage of neurite bearing cells ([8]; RA 10 uM): 41.59 ± 6.46%
neuritogenesis ([8]; cells treated with 10 μM RA): marked acceleration of neuritogenesis
neuritogenesis / differentiation (length and thickness of neurites) ([8]; without RA): most prominent effect on differentiation

Osteo1-p65: four-finger ZFP RDKR-QTHR1-VSTR-RDKR with p65 activation domain (SEQ ID NO:4)
cells with strong ALP staining [9]: about 30%

K_F02: ZFP DSAR2-RDKR-RDER1-QTHR1 with kid repression domain (SEQ ID NO:12)
activation of cell growth compared to the control [6]: 2.7 fold
relative cell number, average [6]: 279.3%

K44_11_G12: ZFP QSHV-VSTR-RDNQ-QTHR1 with kid repression domain (SEQ ID NO:16)
increase of SEAP activity compared to parental plasmid (vector) [2]: approximately 3 fold
CMV-SEAP, average [2]: 2.82
activation of SV40-SEAP [3]: 2-3 fold
SV40-SEAP, average [3]: 2.14
activation of CMV-luciferase [4]: 2-3 fold
CMV-Luc, average [4]: 2.75
